In patent publication US20190270733A1, “Quinoline and Isoquinoline Based HDAC Inhibitors and Methods of Use Thereof” (Reaction Biology Corp., priority 2018, published 2019):

Legend:
Human HDAC2 = biological target: T1, Human HDAC2 (Homo sapiens, UniProt Q92769); experiment: Biochemical HDAC assay, HDAC2; conditions: incubation time 120 min
T1 construct: full-length with a C-terminal His-tag; His-tag (C); made in house
Description: Human HDAC2 (GenBank Accession No. NM_001527), full-length with a C-terminal His-tag, MW=56 kDa, was expressed in a baculovirus expression system.
(§1) • I. Compound handling: Testing compounds were dissolved in 100% DMSO to a specific concentration. The serial dilution was conducted by epMotion 5070 in DMSO. • II. HDAC reaction buffer: 50 mM Tris-HCl, pH8.0, 137 mM NaCl, 2.7 mM KCl, and 1 mM MgCl2, Added fresh: 1 mg/ml BSA, 1% DMSO. • III. Substrate: Fluorogenic HDAC General Substrate for HDAC1, 2, 3, 6, 10, 11 ans Sirt1, 2 and 3: Arg-His-Lys-Lys(Ac); HDAC8 only substrate: Arg-His-Lys(Ac)-Lys(Ac); Class2A Substrate (HDAC4, 5, 7 and 9): Acetyl-Lys(trifluoroacetyl)-AMC; Sirt5 substrate: Ac-Lys(succinyl)-AMC. • IV. General Reaction Procedure: (Standard IC50 determination) • a. Delivered 2× enzyme in wells of reaction plate except No Enzyme (No En) control wells. Add buffer in No En wells. • b. Delivered compounds in 100% DMSO into the enzyme mixture by Acoustic technology (Echo550; nanoliter range). Spin down and pre-incubation. • c. Delivered 2× Substrate Mixture (Fluorogenic HDAC Substrate and co-factor (500 μM of Nicotinamide adenine dinucleotide (NAD^+) in all Sirt assay) in all reaction wells to initiate the reaction. Spin and shake. • d. Incubated for 1-2 hr. at 30° C. with seal. • e. Added Developer with Trichostatin A (or TMP269 or NAD^+) to stop the reaction and to generate fluorescent color. • f. Fluorescence was read (excitatory, 360; emission, 460) using the EnVision Multilabel Plate Reader (Perkin Elmer) • g. Endpoint reading was taken for analysis after the development reaches plateau. • V. Data Analysis: The percentages of enzyme activity (relative to DMSO controls) and IC50 values were calculated using the GraphPad Prism 4 program based on a sigmoidal dose-response equation.
(§2) Compounds with indicated doses was tested in the biochemical assays of HDAC1, HDAC2, HDAC3, HDAC4, HDAC5, HDAC6, HDAC7, HDAC8, HDAC9, HDAC10, or HDAC11 enzyme. The incubation time in HDAC1/2 assays are 120 min, and that for other HDACs are 10 min. The curve fit and IC50 values were calculated using the GraphPad Prism 4 program based on a sigmoidal dose-response equation.

[1] = biological target: T2, Complex of human HDAC3 and human NCOR2 (Homo sapiens, UniProt O15379); experiment: Biochemical HDAC assay, HDAC3; conditions: incubation time 10 min
T2 construct: full-length with a C-terminal His tag; His tag (C); made in house
Description: Complex of human HDAC3 (GenBank Accession No. NM_003883), full-length with a C-terminal His tag, MW=49.7 kDa, and human NCOR2 (amino acid 395-489) (GenBank Accession No. NM_006312), N-terminal GST tag, MW=37.6 kDa, was co-expressed in a baculovirus expression system.
as §1, §2

T1 sequence (Q92769 whole entry): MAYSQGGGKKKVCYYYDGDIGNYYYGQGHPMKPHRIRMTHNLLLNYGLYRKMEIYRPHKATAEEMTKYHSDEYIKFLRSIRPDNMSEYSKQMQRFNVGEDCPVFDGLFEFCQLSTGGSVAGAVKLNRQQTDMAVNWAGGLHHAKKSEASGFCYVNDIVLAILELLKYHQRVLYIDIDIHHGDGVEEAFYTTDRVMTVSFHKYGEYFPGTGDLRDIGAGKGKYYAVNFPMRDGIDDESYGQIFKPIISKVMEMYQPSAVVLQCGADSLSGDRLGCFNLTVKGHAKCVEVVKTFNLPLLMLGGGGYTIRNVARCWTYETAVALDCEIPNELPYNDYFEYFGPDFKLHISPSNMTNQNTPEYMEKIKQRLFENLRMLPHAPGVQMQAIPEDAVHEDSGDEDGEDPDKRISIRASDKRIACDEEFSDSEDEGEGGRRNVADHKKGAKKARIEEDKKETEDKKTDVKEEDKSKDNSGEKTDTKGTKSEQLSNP
T2 sequence (O15379 whole entry): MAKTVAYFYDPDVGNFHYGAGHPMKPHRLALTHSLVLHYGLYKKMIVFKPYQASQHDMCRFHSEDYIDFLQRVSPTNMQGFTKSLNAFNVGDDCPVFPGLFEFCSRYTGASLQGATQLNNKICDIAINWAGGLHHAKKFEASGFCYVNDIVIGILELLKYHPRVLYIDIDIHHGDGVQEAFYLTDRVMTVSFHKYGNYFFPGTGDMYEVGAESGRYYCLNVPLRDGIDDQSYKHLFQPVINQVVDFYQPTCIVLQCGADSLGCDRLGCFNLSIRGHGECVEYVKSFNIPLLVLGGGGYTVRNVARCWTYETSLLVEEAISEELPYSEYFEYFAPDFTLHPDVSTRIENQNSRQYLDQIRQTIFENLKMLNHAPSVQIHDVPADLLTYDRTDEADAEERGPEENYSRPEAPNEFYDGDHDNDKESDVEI
T2 sequence (Q9Y618 395-489 partner limits assumed): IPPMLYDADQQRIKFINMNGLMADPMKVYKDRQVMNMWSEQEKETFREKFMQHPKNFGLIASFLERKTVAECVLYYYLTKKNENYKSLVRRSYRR

IC50 (Human HDAC2): 34 nM
IC50 [1]: > 10000 nM
SMILES: Nc1ccc(-c2cccs2)cc1NC(=O)c1ccc2c(c1)CCC(=O)N2 [Example 5, N-(2-amino-5-(thiophen-2-yl)phenyl)-2-oxo-1,2,3,4-tetrahydroquinoline-6-carboxamide]
